# Test results: patent publication US20220000894A1, “Substance for treatment or prevention of diseases, method for designing the same, and method for preparing the same” (priority 2018, published 2022)
# Tested on: patients with allergic rhinitis
# Test: Clinical application trial for treatment of allergic rhinitis
# Assay type: in vivo, human
# Method: 1. Clinical data: 60 cases (a total number) of outpatients and inpatients with allergic rhinitis were enrolled, and were randomly divided into a treatment group with 30 patients and a control group with 30 patients.
# 2. Diagnosis criteria: 2 or more clinical symptoms such as sneezing, clear water-like nasal discharge, nasal congestion, and nasal itching, appearing continuously or continually for 1 hour or more every day. It may be accompanied by eye symptoms such as eye itching and conjunctival hyperemia. Common signs often include pale nasal mucosa, edema, and watery nasal discharge. Positive in the allergen skin prick test.
# 3. […] The patients in the control group orally took loratadine 10 mg per time, once day, for 30 days.
# 4. […] Total effective rate=cured rate+effective rate.
smiles,measurement,setting,value
CCOC(=O)N1CCC(=C2c3ccc(Cl)cc3CCc3cccnc32)CC1 [loratadine],recurrence after treatment,6-month follow-up / after drug discontinuance,allergic symptoms appeared after contact with allergens after drug discontinuance
same,Effective (number of patients),30 patients per group,20
same,Ineffective (number of patients),30 patients per group,10
same,Total effective rate (%) (cured rate + effective rate),30 patients per group,66.67%
same,Cured (number of patients),"30 patients per group, cured = symptoms and signs disappear for 60 days without recurrence",0
same,adverse reactions occurred,control group of 30 patients,5 cases
